Experiments:
[1] = biological target: T1, rcaspase 3 (Homo sapiens, UniProt P42574); assay: Fluorometric caspase-3 enzyme assay; type: biochemical; conditions: 2 ng rcaspase 3, 10 μM Ac-DEVD-AMC, 37° C., 30 minutes; read-out: IC50 as an inhibitor of caspase-3
T1 construct: purchased PharMingen (a Becton division company, San Diego, Calif.)
T1 sequence (P42574 29-175 limits assumed): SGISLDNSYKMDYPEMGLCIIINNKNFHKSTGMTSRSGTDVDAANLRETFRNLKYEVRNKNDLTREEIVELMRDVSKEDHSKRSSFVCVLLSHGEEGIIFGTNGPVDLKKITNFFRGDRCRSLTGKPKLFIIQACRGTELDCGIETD
T1 sequence (P42574 176-277 limits assumed): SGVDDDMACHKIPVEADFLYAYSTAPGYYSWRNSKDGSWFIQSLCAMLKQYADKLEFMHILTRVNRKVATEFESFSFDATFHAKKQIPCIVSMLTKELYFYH
Description: The activity of S-2-methyl-1-(carbonyl-Asp-CH2F)propyl N-phenylcarbamate as an inhibitor of caspase-3 was measured in a fluorometric enzyme assay. Enzyme activity was measured using synthetic peptide substrates attached to a fluorogenic leaving group. Cleavage of the synthetic substrate by the enzyme results in a fluorescent signal which is read in a spectrofluorometer or in a fluorometric microtiter plate reader.
12 concentrations of the test compound ranging from 30 pM to 10 μM were tested in the enzyme assay. The enzyme reaction was conducted in the presence of 2 ng rcaspase 3 (purchased from PharMingen, a Becton division company, San Diego, Calif.), various concentrations of test compound, 10 μM caspase 3 substrate Ac-DEVD-AMC (SEQ ID NO:1, purchased from Quality Controlled Biochemicals, Inc. Hopkinton, Mass.) and caspase buffer (20 mM PIPES, 100 mM NaCl, 10 mM DTT, 1 mM EDTA, 0.1% CHAPS and 10% sucrose, pH 7.2) in a total volume of 100 μL. The enzyme reaction was carried out in a 96-well plate and incubated at 37° C. for 30 minutes. The plate was then read with a fluorescence plate reader (EG&G WALLAG 1420-002) using excitation filter at 355 nm/emission filter at 460 nm.

[2] = tested on: HeLa cells; assay: Cell protection: HeLa cell death induced by TNF-α; type: cell-based; conditions: TNF-α (25 ng/ml) and cycloheximide (30 μg/ml), 24 hours, calcein AM, read-out: EC50 for cytoprotection
Description: Cell protection activity was determined by examining the ability of S-2-methyl-1-(carbonyl-Asp-CH2F)propyl N-phenylcarbamate to block HeLa cell death induced by TNF-α. In this assay, 25,000 HeLa cells are seeded in 96-well plates 24 hours prior to testing. On the assay day, the cells are pre-incubated for 30 minutes with the test compound at eight different concentrations and the cells are then challenged with TNF-α (25 ng/ml) and cycloheximide (30 μg/ml) and incubated further for 24 hours. The dead cells are then removed by two PBS washes and 100 μL of a cell-mass indicator solution (calcein AM, final concentration 8 μM) is added. After a 20 minute incubation, the fluorescent signal is measured at 485/510 nm and the data are expressed as percent control, using control cultures treated only with cycloheximide.

Question: With `CC(C)[C@H](OC(=O)Nc1ccccc1)C(=O)N[C@@H](CC(=O)O)C(=O)CF` [Example 3, S-2-Methyl-1-(carbonyl-Asp-CH2F)propyl N-Phenylcarbamate] as the compound, how does the IC50 [1] read?
Answer: 0.017 µM

Question: What about the EC50 [2] of the same compound?
Answer: 0.15 µM

Source: patent US6495522B1, “Substituted alpha-hydroxy acid caspase inhibitors and the use thereof” (Cytovia, Inc., priority 1999, dated 2002)
